Reference: US11866430B2, “Naphthyridinone compounds useful as T cell activators” (priority 2018, dated 2024)
Like-named read-outs stand apart in the source and are kept apart here.

Assays:
[1] = test system: pre-activated CD4 T cells and Raji cells; assay: Raji CD4 T Cell IL2 Assay; assay type: cell-based
human DGKα [2] = target: T1, human DGKα (Homo sapiens (Human), UniProt P23743); assay: DGKα LIPGLO assay (extruded liposome substrate); assay type: biochemical
Summary of the method: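 Human full-length DGKα, His-tagged and produced in Sf9 cells, assayed at 20 nM (4× stock) on extruded liposomes of PS, 0.25 mM DAG and 2.75 mM PC, preincubated 10 min. Reaction started with 300 μM ATP (stock) and ran 1 h in MOPS pH 7.5/MgCl2/CaCl2/DTT buffer.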

human DGKζ [3] = target: T2, human DGKζ (Homo sapiens (Human), UniProt Q13574); assay: DGKζ assay (detergent/lipid micelle substrate); assay type: biochemical
Summary of the method: (§1)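 Full-length human DGKα or DGKζ (C-terminal His tag, Sf9-expressed; 20 nM 4× stock) was preincubated 10 min at room temperature with PS/DAG octyl glucoside micelles in MOPS pH 7.5 buffer with MgCl2, CaCl2 and DTT. It was then started with ATP (300 uM addition) and run for 1 hr, with ADP-Glo luminescence read-out.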

human DGKζ [4] = target: T2, human DGKζ; assay: DGKζ LIPGLO assay (extruded liposome substrate); assay type: biochemical
Summary of the method: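 Recombinant DGKζ (Sf9-expressed, Ni/SEC/SP-purified) preincubated 10 min with extruded 100 nm PC/DAG/PS liposomes in 50 mM MOPS pH 7.5, 100 mM NaCl, 10 mM MgCl2, 1 μM CaCl2, 1 mM DTT. Started with 300 uM ATP solution (stock, pre-addition); 1 hr reaction. ADP-Glo luminescence; IC50 from 11 concentrations.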

human DGKα [5] = target: T1, human DGKα; assay: biochemical; settings: detergent/lipid micelle substrate; read-out: DGKα IC50
Summary of the method: as §1

[6] = detergent/lipid micelle substrate, read-out: DGKζ IC50
[7] = extruded liposome substrate, read-out: DGKζ LIPGLO IC50

T2 sequence (Q13574 other isoform, or with tags, fused parts or gaps): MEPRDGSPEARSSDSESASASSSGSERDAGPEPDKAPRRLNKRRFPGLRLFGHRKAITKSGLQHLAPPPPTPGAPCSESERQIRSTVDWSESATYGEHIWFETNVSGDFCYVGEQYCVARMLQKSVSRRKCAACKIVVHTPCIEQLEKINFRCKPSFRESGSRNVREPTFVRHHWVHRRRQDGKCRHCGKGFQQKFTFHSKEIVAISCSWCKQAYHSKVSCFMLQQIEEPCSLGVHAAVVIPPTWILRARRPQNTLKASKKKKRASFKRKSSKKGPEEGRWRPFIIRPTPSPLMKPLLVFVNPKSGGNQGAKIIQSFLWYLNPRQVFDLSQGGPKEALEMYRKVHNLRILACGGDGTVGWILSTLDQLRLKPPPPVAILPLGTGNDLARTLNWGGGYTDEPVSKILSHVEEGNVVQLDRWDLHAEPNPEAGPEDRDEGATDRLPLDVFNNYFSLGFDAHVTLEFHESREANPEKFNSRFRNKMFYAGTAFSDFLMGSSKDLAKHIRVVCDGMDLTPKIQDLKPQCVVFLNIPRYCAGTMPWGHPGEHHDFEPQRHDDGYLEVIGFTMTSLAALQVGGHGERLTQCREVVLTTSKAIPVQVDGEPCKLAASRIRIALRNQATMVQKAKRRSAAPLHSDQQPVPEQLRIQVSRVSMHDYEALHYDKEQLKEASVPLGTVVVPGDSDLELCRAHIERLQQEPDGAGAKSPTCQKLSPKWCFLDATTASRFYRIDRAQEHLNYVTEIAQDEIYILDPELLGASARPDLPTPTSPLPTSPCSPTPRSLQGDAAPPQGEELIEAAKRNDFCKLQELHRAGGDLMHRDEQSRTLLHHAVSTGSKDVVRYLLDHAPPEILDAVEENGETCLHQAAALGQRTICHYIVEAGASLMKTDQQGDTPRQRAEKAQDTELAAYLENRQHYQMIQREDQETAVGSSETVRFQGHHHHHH
T1 sequence (P23743 other isoform, or with tags, fused parts or gaps): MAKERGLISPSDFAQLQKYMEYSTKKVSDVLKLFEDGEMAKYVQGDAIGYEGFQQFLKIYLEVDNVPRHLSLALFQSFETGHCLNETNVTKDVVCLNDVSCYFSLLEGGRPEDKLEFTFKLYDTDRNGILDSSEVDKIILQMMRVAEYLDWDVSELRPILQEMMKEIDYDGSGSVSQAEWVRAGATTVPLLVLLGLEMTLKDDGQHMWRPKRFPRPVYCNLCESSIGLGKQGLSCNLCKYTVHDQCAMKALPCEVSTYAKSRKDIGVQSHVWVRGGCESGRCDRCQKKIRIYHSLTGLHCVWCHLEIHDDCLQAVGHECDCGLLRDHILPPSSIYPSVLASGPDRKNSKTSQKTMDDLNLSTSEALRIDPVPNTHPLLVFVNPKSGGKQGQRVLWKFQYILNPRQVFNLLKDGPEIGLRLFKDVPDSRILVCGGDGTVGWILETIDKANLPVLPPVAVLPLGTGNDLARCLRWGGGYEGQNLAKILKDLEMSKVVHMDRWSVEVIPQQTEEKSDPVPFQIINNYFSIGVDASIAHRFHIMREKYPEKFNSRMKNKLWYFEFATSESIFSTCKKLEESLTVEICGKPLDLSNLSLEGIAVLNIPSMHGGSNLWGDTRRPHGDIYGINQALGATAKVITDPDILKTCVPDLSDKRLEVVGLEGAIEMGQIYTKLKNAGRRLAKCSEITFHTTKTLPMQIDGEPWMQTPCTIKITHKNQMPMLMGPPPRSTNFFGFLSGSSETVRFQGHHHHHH

SMILES: Cn1c(=O)c([N+](=O)[O-])c(N2CCN(C(c3ccc(F)cc3)c3ccc(F)cc3)CC2)c2ncccc21 [Example 3, 4-(4-(bis(4-fluorophenyl)methyl)piperazin-1-yl)-1-methyl-3-nitro-1,5-naphthyridin-2(1H)-one]
- IC50 ([1]; Homo sapiens, Raji): 310 nM
- IC50 (human DGKα [2]): 3800 nM
- IC50 (human DGKζ [3]; [6]): > 240000 nM
- IC50 (human DGKζ [4]; [7]): 2300 nM
- IC50 (human DGKα [5]): 2100 nM

SMILES: CC(c1ccc(F)cc1)N1CCN(c2c([N+](=O)[O-])c(=O)n(C)c3ccc(C#N)nc23)CC1 (single isomer, unassigned) [Example 45, 8-(4-(1-(4-fluorophenyl)ethyl)piperazin-1-yl)-5-methyl-7-nitro-6-oxo-5,6-dihydro-1,5-naphthyridine-2-carbonitrile]
- IC50 ([1]; Homo sapiens, Raji): 62 nM
- IC50 (human DGKα [2]): 390 nM
- IC50 (human DGKζ [3]; [6]): 36000 nM
- IC50 (human DGKζ [4]; [7]): 6800 nM
- IC50 (human DGKα [5]): 100 nM

SMILES: Cc1ccc2c(n1)c(N1CCN(C(c3ccc(F)cc3)c3ccc(F)cc3)CC1)c(Cl)c(=O)n2C [Example 233, 4-(4-(bis(4-fluorophenyl)methyl)piperazin-1-yl)-3-chloro-1,6-dimethyl-1,5-naphthyridin-2(1H)-one]
- IC50 ([1]; Homo sapiens, Raji): 480 nM
- IC50 (human DGKα [2]): 3000 nM
- IC50 (human DGKζ [3]; [6]): > 240000 nM
- IC50 (human DGKζ [4]; [7]): 6600 nM
- IC50 (human DGKα [5]): 8400 nM

SMILES: C#CCn1c(=O)c(C#N)c(N2CCN(Cc3ccc(F)cc3O)CC2)c2nc(Br)ccc21 [Example 67, 6-bromo-4-(4-(4-fluoro-2-hydroxybenzyl)piperazin-1-yl)-2-oxo-1-(prop-2-yn-1-vi)-1,2-dihydro-1,5-naphthyridine-3-carbonitrile]
- IC50 ([1]; Homo sapiens, Raji): 6.6 nM
- IC50 (human DGKα [2]): 4800 nM
- IC50 (human DGKζ [3]; [6]): 13000 nM
- IC50 (human DGKζ [4]; [7]): 12000 nM
- IC50 (human DGKα [5]): 130 nM

SMILES: Cc1ccc(O)c(CN2CCN(c3c(C#N)c(=O)n(C)c4ccc(Cl)nc34)CC2)c1 [Example 283, 6-chloro-4-{4-[(2-hydroxy-5-methylphenyl)methyl]piperazin-1-yl}-1-methyl-2-oxo-1,2-dihydro-1,5-naphthyridine-3-carbonitrile]
- IC50 ([1]; Homo sapiens, Raji): 94 nM
- IC50 (human DGKα [2]): 210 nM
- IC50 (human DGKζ [3]; [6]): 27000 nM
- IC50 (human DGKζ [4]; [7]): 3000 nM
- IC50 (human DGKα [5]): 120 nM

SMILES: Cc1ccc2c(n1)c(N1CCN(Cc3cccc(F)c3O)CC1)c(C#N)c(=O)n2C [Example 329, 4-{4-[(3-fluoro-2-hydroxyphenyl)methyl]piperazin-1-yl}-1,6-dimethyl-2-oxo-1,2-dihydro-1,5-naphthyridine-3-carbonitrile]
- IC50 ([1]; Homo sapiens, Raji): 470 nM
- IC50 (human DGKα [2]): 5600 nM
- IC50 (human DGKζ [3]; [6]): 30000 nM
- IC50 (human DGKζ [4]; [7]): 49000 nM
- IC50 (human DGKα [5]): 560 nM

SMILES: Cn1c(=O)c(C#N)c(N2CCN(C(c3ccc(F)cc3)c3ccc(F)cc3)CC2)c2nc(C#N)ccc21 [Example 217, 8-(4-(bis(4-fluorophenyl)methyl)piperazin-1-yl)-5-methy-6-oxo-5,6-dihydro-1,5-naphthyridine-2,7-dicarbonitrile]
- IC50 ([1]; Homo sapiens, Raji): 67 nM
- IC50 (human DGKα [2]): 1300 nM
- IC50 (human DGKζ [3]; [6]): 4500 nM
- IC50 (human DGKζ [4]; [7]): 1400 nM
- IC50 (human DGKα [5]): 2300 nM

SMILES: N#CCCCn1c(=O)c([N+](=O)[O-])c(N2CCN(C(c3ccccc3)c3ccccc3)CC2)c2ncccc21 [Example 183, 4-(4-(4-benzhydrylpiperazin-1-yl)-3-nitro-2-oxo-1,5-naphthyridin-1(2H)-yl)butanenitrile]
- IC50 ([1]; Homo sapiens, Raji): 3200 nM
- IC50 (human DGKα [2]): > 240000 nM
- IC50 (human DGKζ [3]; [6]): > 240000 nM
- IC50 (human DGKζ [4]; [7]): 21000 nM
- IC50 (human DGKα [5]): 52000 nM

SMILES: C#CCn1c(=O)c([N+](=O)[O-])c(N2CCN(C(c3ccc(F)cc3)c3ccc(F)cc3OC)CC2)c2nc(C#N)ccc21 (single isomer, unassigned) [Example 128, 8-(4-((4-fluoro-2-methoxyphenyl)(4-fluorophenyl)methyl)piperazin-1-yl)-7-nitro-6-oxo-5-(prop-2-yn-1-yl)-5,6-dihydro-1,5-naphthyridine-2-carbonitrile]
- IC50 [1]: 100 nM
- IC50 (human DGKα [2]): 18000 nM
- IC50 (human DGKζ [3]; [6]): 1500 nM
- IC50 (human DGKζ [4]; [7]): 48 nM
- IC50 (human DGKα [5]): 21000 nM

SMILES: CCC(c1ccc(F)cc1)N1CCN(c2c([N+](=O)[O-])c(=O)n(C)c3ccc(C#N)nc23)CC1 (single isomer, unassigned) [Example 33, 8-{4-[1-(4-fluorophenyl)propyl]piperazin-1-yl}-5-methyl-7-nitro-6-oxo-5,6-dihydro-1,5-naphthyridine-2-carbonitrile]
- IC50 ([1]; Homo sapiens, Raji): 18 nM
- IC50 (human DGKα [2]): 1700 nM
- IC50 (human DGKζ [3]; DGKζ IC50, detergent/lipid micelle substrate): 7600 nM
- IC50 (human DGKζ [4]; DGKζ LIPGLO IC50, extruded liposome substrate): 1700 nM
- IC50 (human DGKα [5]): 750 nM

SMILES: Cc1cccc(O)c1CN1CCN(c2c(C#N)c(=O)n(C)c3ccc(Cl)nc23)CC1 [Example 292, 6-chloro-4-{4-[(2-hydroxy-6-methylphenyl)methyl]piperazin-1-yl}-1-methyl-2-oxo-1,2-dihydro-1,5-naphthyridine-3-carbonitrile]
- IC50 ([1]; Homo sapiens, Raji): 110 nM
- IC50 (human DGKα [2]): 480 nM
- IC50 (human DGKζ [3]; [6]): 25000 nM
- IC50 (human DGKζ [4]; [7]): 2400 nM
- IC50 (human DGKα [5]): 270 nM

SMILES: C#CCn1c(=O)c(C#N)c(N2CCN(Cc3ccccc3O)CC2)c2nc(Br)ccc21 [Example 65, 6-bromo-4-(4-(2-hydroxybenzyl)piperazin-1-yl)-2-oxo-1-(prop-2-yn-1-yl)-1,2-dihydro-1,5-naphthyridine-3-carbonitrile]
- IC50 ([1]; Homo sapiens, Raji): 5.5 nM
- IC50 (human DGKα [2]): 510 nM
- IC50 (human DGKζ [3]; [6]): 20000 nM
- IC50 (human DGKζ [4]; [7]): 3700 nM
- IC50 (human DGKα [5]): 290 nM

SMILES: Cn1c(=O)c(C#N)c(N2CCN(Cc3ccc(Cl)cc3O)CC2)c2nc(Cl)ccc21 [Example 288, 6-chloro-4-{4-[(4-chloro-2-hydroxyphenyl)methyl]piperazin-1-yl}-methyl-2-oxo-1,2-dihydro-1,5-naphthyridine-3-carbonitrile]
- IC50 ([1]; Homo sapiens, Raji): 100 nM
- IC50 (human DGKα [2]): 33 nM
- IC50 (human DGKζ [3]; [6]): > 240000 nM
- IC50 (human DGKζ [4]; [7]): 2300 nM
- IC50 (human DGKα [5]): 37 nM

SMILES: CC(c1ccc(F)cc1)N1CCN(c2c(C#N)c(=O)n(C)c3ccc(Br)nc23)CC1 (single isomer, unassigned) [Example 23, 6-bromo-4-{4-[1-(4-fluorophenyl)ethyl]piperazin-1-yl}-1-methyl-2-oxo-1,2-dihydro-1,5-naphthyridine-3-carbonitrile]
- IC50 [1]: 41 nM
- IC50 (human DGKα [2]): 1900 nM
- IC50 (human DGKζ [3]; [6]): > 240000 nM
- IC50 (human DGKζ [4]; [7]): 13000 nM
- IC50 (human DGKα [5]): 610 nM

SMILES: Cn1c(=O)c([N+](=O)[O-])c(N2CCN(C(c3ccc(F)cc3)C3CC3)CC2)c2nc(C#N)ccc21 (single isomer, unassigned) [Example 50, 8-(4-(cyclopropyl(4-fluorophenyl)methyl)piperazin-1-yl)-5-methyl-7-nitro-6-oxo-5,6-dihydro-1,5-naphthyridine-2-carbonitrile]
- IC50 [1]: 39 nM
- IC50 (human DGKα [2]): 2100 nM
- IC50 (human DGKζ [3]; [6]): 39000 nM
- IC50 (human DGKζ [4]; [7]): 5700 nM
- IC50 (human DGKα [5]): 990 nM

SMILES: COc1cccc(F)c1CN1CCN(c2c(C#N)c(=O)n(C)c3ccc(Cl)nc23)CC1 [Example 335, 6-chloro-4-{4-[(2-fluor-6-methoxyphenyl)methyl]piperazin-1-yl}-1-methyl-2-oxo-1,2-dihydro-1,5-naphthyridine-3-carbonitrile]
- IC50 ([1]; Homo sapiens, Raji): 540 nM
- IC50 (human DGKα [2]): 1900 nM
- IC50 (human DGKζ [3]; [6]): > 240000 nM
- IC50 (human DGKζ [4]; [7]): 18000 nM
- IC50 (human DGKα [5]): 2700 nM

SMILES: Cn1c(=O)c(C#N)c(N2CCN(Cc3ccc(Cl)c(O)c3)CC2)c2nc(Cl)ccc21 [Example 323, 6-chloro-4-{4-[(4-chloro-3-hydroxyphenyl)methyl]piperazin-1-yl}-1-methyl-2-oxo-1,2-dihydro-1,5-naphthyridine-3-carbonitrile]
- IC50 ([1]; Homo sapiens, Raji): 340 nM
- IC50 (human DGKα [2]): 1200 nM
- IC50 (human DGKζ [3]; [6]): 11000 nM
- IC50 (human DGKζ [4]; [7]): 27000 nM
- IC50 (human DGKα [5]): 140 nM

SMILES: Cn1c(=O)c(C#N)c(N2CCN(Cc3ccc(Br)cc3O)CC2)c2nc(C#N)ccc21 [Example 263, 8-{4-[(4-bromo-2-hydroxyphenyl)methyl]piperazin-1-yl}-5-methyl-6-oxo-5,6-dihydro-1,5-naphthyridine-2,7-dicarbonitrile]
- IC50 ([1]; Homo sapiens, Raji): 35 nM
- IC50 (human DGKα [2]): 220 nM
- IC50 (human DGKζ [3]; [6]): 14000 nM
- IC50 (human DGKζ [4]; [7]): 5200 nM
- IC50 (human DGKα [5]): 84 nM

SMILES: COc1c(F)cccc1CN1CCN(c2c(C#N)c(=O)n(C)c3ccc(Cl)nc23)CC1 [Example 274, 6-chloro-4-{4-[(3-fluoro-2-methoxyphenyl)methyl]piperazin-1-yl}-1-methyl-2-oxo-1,2-dihydro-1,5-naphthyridine-3-carbonitrile]
- IC50 ([1]; Homo sapiens, Raji): 72 nM
- IC50 (human DGKα [2]): 1600 nM
- IC50 (human DGKζ [3]; [6]): 30000 nM
- IC50 (human DGKζ [4]; [7]): 5400 nM
- IC50 (human DGKα [5]): 670 nM

SMILES: C#CCn1c(=O)c([N+](=O)[O-])c(N2CCN(C(c3ccc(F)cc3)c3ccc(F)cc3OC)CC2)c2nc(C#N)ccc21 (single isomer, unassigned) [Example 127, 8-(4-((4-fluoro-2-methoxyphenyl)(4-fluorophenyl)methyl)piperazin-1-yl)-7-nitro-6-oxo-5-(prop-2-yn-1-yl)-5,6-dihydro-1,5-naphthyridine-2-carbonitrile]
- IC50 [1]: 6.4 nM
- IC50 (human DGKα [2]): 2900 nM
- IC50 (human DGKζ [3]; [6]): 250 nM
- IC50 (human DGKζ [4]; [7]): 30 nM
- IC50 (human DGKα [5]): 4200 nM

SMILES: Cn1c(=O)c(C#N)c(N2CCN(Cc3c(O)cccc3Br)CC2)c2nc(Cl)ccc21 [Example 258, 4-{4-[(2-bromo-6-hydroxyphenyl)methyl]piperazin-1-yl}-6-chloro-1-methyl-2-oxo-1,2-dihydro-1,5-naphthyridine-3-carbonitrile]
- IC50 ([1]; Homo sapiens, Raji): 5.3 nM
- IC50 (human DGKα [2]): 1600 nM
- IC50 (human DGKζ [3]; [6]): 26000 nM
- IC50 (human DGKζ [4]; [7]): 5300 nM
- IC50 (human DGKα [5]): 430 nM
